In general, IC50 refers to the concentration at which inhibition is half-maximal. In general, inhibition refers to the change of the read-out against control, counted positive when it falls.

Results on 27 compounds are retold here after PubChem BioAssay AID405 (SGCOxCompounds, 2006).

For the first assay, the target named is Receptor-type tyrosine-protein phosphatase R (Homo sapiens) (UniProt Q15256). The assay is described as follows: inhibitors of receptor tyrosine phosphatase R – biochemical, recombinant human enzyme, DiFMUP fluorescence (AID 405). As to conditions: recombinant PTPRR, DiFMUP fluorescence phosphatase assay.
Chain of Receptor-type tyrosine-protein phosphatase R (Homo sapiens) (Q15256 whole entry, looked up): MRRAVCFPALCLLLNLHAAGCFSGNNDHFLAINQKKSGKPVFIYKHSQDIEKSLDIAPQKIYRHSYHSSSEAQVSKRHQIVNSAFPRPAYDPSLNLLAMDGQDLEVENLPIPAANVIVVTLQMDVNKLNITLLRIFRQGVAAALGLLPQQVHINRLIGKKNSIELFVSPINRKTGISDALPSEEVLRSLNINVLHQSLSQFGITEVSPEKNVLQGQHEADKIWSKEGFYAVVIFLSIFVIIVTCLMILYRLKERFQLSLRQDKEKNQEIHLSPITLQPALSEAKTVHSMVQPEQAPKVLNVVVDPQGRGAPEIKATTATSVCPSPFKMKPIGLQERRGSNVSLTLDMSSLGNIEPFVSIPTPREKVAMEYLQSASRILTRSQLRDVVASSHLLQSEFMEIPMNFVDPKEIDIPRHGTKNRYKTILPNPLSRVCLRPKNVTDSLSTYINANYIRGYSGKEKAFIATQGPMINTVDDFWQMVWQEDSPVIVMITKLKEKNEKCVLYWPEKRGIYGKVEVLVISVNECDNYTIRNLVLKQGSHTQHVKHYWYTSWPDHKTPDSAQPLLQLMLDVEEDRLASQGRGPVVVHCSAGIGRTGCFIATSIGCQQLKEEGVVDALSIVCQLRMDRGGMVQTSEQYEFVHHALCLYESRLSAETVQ
`O=C(O)c1ccc(O)c(C=Nc2ccc3oc(-c4ccc(F)cc4Cl)nc3c2)c1`: the IC50 is 7.3 µM.

`CC(=O)c1ccc2c(c1)C1C=CCC1C(C(=O)O)N2` (configuration not stated): the IC50 is 6.7 µM.

In the case of `Cc1ccc(C)n1-c1ccc(C(=O)O)cc1O`, the IC50 is 13.7 µM.

`Cc1ccc2nc(-c3cc(N=Cc4cc(C(=O)O)ccc4O)ccc3O)[nH]c2c1`: the IC50 was 25.6 µM.

With `NC1=NC(=O)/C(=C/C=C/c2ccc([N+](=O)[O-])o2)S1`, the IC50 is 2.3 µM.

Consider `COc1ccc(-c2nc3cc(N=Cc4cc(C(=O)O)ccc4O)ccc3o2)cc1`, for which the IC50 is 15.9 µM.

As to `Cc1ccc(C)n1-c1cc(C(=O)O)ccc1O`, the IC50 is 3.9 µM.

Still in this assay, the particulars now being: recombinant PTPRR, DiFMUP fluorescence phosphatase assay; at 50 µM; hits give high values.
With `CCn1nc(-c2ccc(Cl)cc2)nc2c(=O)n(C)c(=O)nc1-2`, the inhibition was 64%.

Turning to `CCn1nc(/C=C/c2ccccc2)[n+](=O)c2c(=O)n(C)c(=O)[nH]c21`, the inhibition was 63%.

In the case of `O=C(O)c1ccc(O)c(N2C(=O)Nc3ccccc3N2O)c1`, the inhibition was 76%.

As to `O=C(O)c1ccc(O)cn1.OO.[O]=[V]`, the inhibition was 95%.

Regarding `CN(N=O)c1ccc(O)c(O)c1`, the inhibition was 33%.

On to `O=C(O)c1ccc(O)c(C=Nc2cccc(-c3nc4ccccc4o3)c2)c1`, for which the inhibition was 58%.

For the compound `OO.OO.[K+].[O]=[V].c1ccc(-c2ccccn2)nc1`, the inhibition is 98%.

In the case of `O=C(O)c1ccc([O-])cn1.OO.OO.[K+].[K+].[O]=[V]`, the inhibition was 98%.

Regarding `O=C(O)c1ccc(O)c(/C=N/N(CCO)C2=NS(=O)(=O)c3ccccc32)c1`, the inhibition was 66%.

Regarding `O=C(O)c1ccc(O)c(C=Nc2ccc3oc(-c4ccccc4)nc3c2)c1`, the inhibition was 66%.

As for `O=C(O)c1ccc(O)c(C=Nc2ccc3oc(-c4cccc(Cl)c4Cl)nc3c2)c1`, the inhibition is 66%.

Regarding `Cc1ccc2oc(-c3cccc(N=Cc4cc(C(=O)O)ccc4O)c3)nc2c1`, the inhibition was 51%.

As to `O=C1NC(=S)S/C1=C\C=C\c1ccc([N+](=O)[O-])o1`, the inhibition was 100%.

Regarding `O=C1NC(=S)NC(=O)C1=C/C=C/c1ccco1`, the inhibition was 100%.

For `COc1ccc(OC)c(N=Cc2cc(C(=O)O)ccc2O)c1`, the inhibition is 69%.

On to `Cn1nc(/C=C/c2ccccc2)nc2c(=O)n(C)c(=O)nc1-2`, for which the inhibition is 77%.

In the case of `O=C(O)c1ccc(O)c(C=Nc2ccc3oc(-c4cccc(Cl)c4)nc3c2)c1`, the inhibition was 83%.

`O=C([O-])c1ccccn1.OO.OO.[K+].[K+].[O]=[V]`: the inhibition was 98%.

As for `O=C(O)c1ccc(O)c(C=Nc2ccc3oc(-c4cc(Cl)ccc4Cl)nc3c2)c1`, the inhibition is 81%.

In the case of `CC(C)(c1ccc(NS(=O)(=O)C(F)(F)F)cc1)c1ccc(C(C)(C)c2ccc(NS(=O)(=O)C(F)(F)F)cc2)cc1`, the inhibition is 91%.
